Measurements: patent US20150290232A1, “DRUG COMPOSITION FOR TREATING TUMORS AND APPLICATION THEREOF” (priority 2012, published 2015)
Where two headings read alike, the source gives them in different places.

Experiments:
Assay type in all cases: cell-based
[1] = tested on: Huh7 (human liver cancer cell); test: MTT cell viability, human solid tumor cells; conditions: for IC50: read-out: concentration (IC50 value of 72 hours)
Protocol: (§1) Well-growing cells of above were obtained and inoculated into wells of a 96-well cell culture plate at 5000 cells/well. Individual compounds of various concentrations were added, mixed uniformly, and incubated (5% CO2) at 37° C. for 72 hours. Then the cell viability was determined by the MTT method.
(§2) b) Determine the inhibitory effects of TTD in combination with Ada A on the human solid tumor cells. The pretreatment of the cells was the same as in a). The control group was not treated with the compound while administered. […] As to the combination group, two compounds were added together into the same group of wells, with the fmal concentration being the concentration to which the IC50 of the single drugs correspond. After 72 hours of incubation, the MTT method was used for the determination of cell viability. The cell viability of the control group was set to 100% in this experiment, and the TTD, Ada A single drug and combined effects on cell viability (%) were calculated.

PC-3 (prostate cancer) = test: MTT cell viability, human solid tumor cells; conditions: 72 h; for IC50: read-out: concentration (IC50 value of 72 hours)
Protocol: as §1, §2

[2] = tested on: Hela (human cervical cancer cell); test: MTT cell viability, human solid tumor cells; conditions: 72 h; for IC50: read-out: concentration (IC50 value of 72 hours)
Protocol: as §1, §2

[3] = tested on: CNE (nasopharyngeal carcinoma cell); test: MTT cell viability, human solid tumor cells; conditions: 72 h; for IC50: read-out: concentration (IC50 value of 72 hours)
Protocol: as §1, §2

MG63 (osteosarcoma) = test: MTT cell viability, human solid tumor cells; conditions: for IC50: read-out: concentration (IC50 value of 72 hours)
Protocol: as §1, §2

[4] = tested on: MGC-803 (human gastric cancer cell); test: MTT cell viability, human solid tumor cells; conditions: for IC50: read-out: concentration (IC50 value of 72 hours)
Protocol: as §1, §2

[5] = tested on: SK-OV-3 (ovarian cancer cell); test: MTT cell viability, human solid tumor cells; conditions: for IC50: read-out: concentration (IC50 value of 72 hours)
Protocol: as §1, §2

[6] = tested on: RKO (human colon adenocarcinoma cell); test: MTT cell viability, human solid tumor cells; conditions: 72 h; for IC50: read-out: concentration (IC50 value of 72 hours)
Protocol: as §1, §2

[7] = tested on: Panc-1 (pancreatic cancer); test: MTT cell viability, human solid tumor cells; conditions: for IC50: read-out: concentration (IC50 value of 72 hours)
Protocol: as §1, §2

[8] = tested on: SPC-A-1 (human lung adenocarcinoma cell); test: MTT cell viability, human solid tumor cells; conditions: for IC50: read-out: concentration (IC50 value of 72 hours)
Protocol: as §1, §2

A549 (human lung cancer) = test: MTT cell viability, human solid tumor cells; conditions: for IC50: read-out: concentration (IC50 value of 72 hours)
Protocol: as §1, §2

[9] = tested on: Hep2 (laryngeal carcinoma); test: MTT cell viability, human solid tumor cells; conditions: for IC50: read-out: concentration (IC50 value of 72 hours)
Protocol: as §1, §2

[10] = tested on: Hep G2 (human hepatoma carcinoma cell); test: MTT cell viability, human solid tumor cells; conditions: for IC50: read-out: concentration (IC50 value of 72 hours)
Protocol: as §1, §2

[11] = tested on: U87-MG (malignant glioma cell); test: MTT cell viability, human solid tumor cells; conditions: U-87 MG, 72 h; for IC50: read-out: concentration (IC50 value of 72 hours)
Protocol: as §1, §2

[12] = tested on: Becap-37 (human breast cancer cell); test: MTT cell viability, human solid tumor cells; conditions: 72 h; for IC50: read-out: concentration (IC50 value of 72 hours)
Protocol: as §1, §2

[13] = tested on: Raji (human Burkitt lymphoma cells); test: MTT cell viability, lymphoma and myeloma cells; conditions: 72 h; for IC50: read-out: concentration (IC50 value of 72 hours)
Protocol: (§3) Well-growing cells of above were obtained and inoculated into wells of a 96-well cell culture plate at 5000 cells/well. Separate compounds of various concentrations were added, mixed uniformly, and incubated (5% CO2) at 37° C. for 72 hours. Then the cell viability was determined by the MTT method.
(§4) b) Determine the inhibitory effects of TTD in combination with Ada A on the above cells. The pretreatment of the cells was the same as in a). The control group was not treated with the compound while administered. […] As to the combination group, two compounds were added together into the same group of wells, with the fmal concentrations being the concentrations to which the IC50 values of the two single drugs correspond. After 72 hours of incubation, the MTT method was used for the determination of cell viability. The cell viability of the control group was set to 100% in this experiment, and the TTD, Ada A single drug and combined effects on cell viability (%) were calculated.

[14] = tested on: RPMI 8226 (multiple myeloma); test: MTT cell viability, lymphoma and myeloma cells; conditions: Homo sapiens; for IC50: read-out: concentration (IC50 value of 72 hours)
Protocol: as §3, §4

[15] = tested on: CaES-17 (esophageal cancer cell); test: MTT cell viability, human solid tumor cells; conditions: for IC50: read-out: concentration (IC50 value of 72 hours)
Protocol: as §1
b) Determine the inhibitory effects of TTD in combination with Ada A on the human solid tumor cells. The pretreatment of the cells was the same as in a). The control group was not treated with the compound while administered. The two single-drug groups were added with respective active component to the concentration under which the IC50 of two compounds in a) achieve. As to the combination group, two compounds were added together into the same group of wells, with the fmal concentration being the concentration to which the IC50 of the single drugs correspond. After 72 hours of incubation, the MTT method was used for the determination of cell viability. The cell viability of the control group was set to 100% in this experiment, and the TTD, Ada A single drug and combined effects on cell viability (%) were calculated.

[16] = CaEs17, 72 h, read-out: CV (cell viability)

COc1ccc2cc1Oc1ccc(cc1)C[C@H]1c3cc(c(OC)cc3CCN1C)Oc1c(OC)c(OC)cc3c1[C@H](C2)N(C)CC3 [TTD, tetrandrine]
viability at 3 µg/mL ([1]; Huh-7, Huh7, TTD 3 μg/mL, 72 h, MTT, control = 100%, read-out: CV (cell viability)): 54% | IC50 ([1]; Huh-7, Huh7, single compound, 72 h, MTT): 3 µg/mL | viability at 4.5 µg/mL (PC-3 (prostate cancer); PC-3, TTD 4.5 μg/mL, MTT, control = 100%, read-out: CV (cell viability)): 47% | IC50 (PC-3 (prostate cancer); PC-3, single compound, MTT): 4.5 µg/mL | viability at 1.25 µg/mL ([2]; Hela, TTD 1.25 μg/mL, MTT, control = 100%, read-out: CV (cell viability)): 47% | IC50 ([2]; Hela, single compound, MTT): 1.25 µg/mL | viability at 3 µg/mL ([3]; CNE, TTD 3 μg/mL, MTT, control = 100%, read-out: CV (cell viability)): 51.9% | IC50 ([3]; CNE, single compound, MTT): 3 µg/mL | viability at 2 µg/mL (MG63 (osteosarcoma); MG-63, MG63, TTD 2 μg/mL, 72 h, MTT, control = 100%, read-out: CV (cell viability)): 40.8% | IC50 (MG63 (osteosarcoma); MG-63, MG63, single compound, 72 h, MTT): 2 µg/mL | viability at 3 µg/mL ([4]; MGC-803, TTD 3 μg/mL, 72 h, MTT, control = 100%, read-out: CV (cell viability)): 50.9% | IC50 ([4]; MGC-803, single compound, 72 h, MTT): 3 µg/mL | viability at 5 µg/mL ([5]; SK-OV-3, TTD 5 μg/mL, 72 h, MTT, control = 100%, read-out: CV (cell viability)): 55.9% | IC50 ([5]; SK-OV-3, single compound, 72 h, MTT): 5 µg/mL | viability at 1.5 µg/mL ([6]; RKO, TTD 1.5 μg/mL, MTT, control = 100%, read-out: CV (cell viability)): 45.3% | IC50 ([6]; RKO, single compound, MTT): 1.5 µg/mL | viability at 4.67 µg/mL ([7]; Panc-1, TTD 4.67 μg/mL, 72 h, MTT, control = 100%, read-out: CV (cell viability)): 52.3% | IC50 ([7]; Panc-1, single compound, 72 h, MTT): 4.67 µg/mL | viability at 3.5 µg/mL ([8]; SPCA1, SPC-A-1, TTD 3.5 μg/mL, 72 h, MTT, control = 100%, read-out: CV (cell viability)): 52.5% | IC50 ([8]; SPCA1, SPC-A-1, single compound, 72 h, MTT): 3.5 µg/mL | viability at 8.34 µg/mL (A549 (human lung cancer); A549, TTD 8.34 μg/mL, 72 h, MTT, control = 100%, read-out: CV (cell viability)): 47.6% | IC50 (A549 (human lung cancer); A549, single compound, 72 h, MTT): 8.34 µg/mL | viability at 2.59 µg/mL ([9]; HEp-2, Hep2, TTD 2.59 μg/mL, 72 h, MTT, control = 100%, read-out: CV (cell viability)): 43.8% | IC50 ([9]; HEp-2, Hep2, single compound, 72 h, MTT): 2.59 µg/mL | viability at 1.5 µg/mL ([10]; HepG2, Hep G2, TTD 1.5 μg/mL, 72 h, MTT, control = 100%, read-out: CV (cell viability)): 52.5% | IC50 ([10]; HepG2, Hep G2, single compound, 72 h, MTT): 1.5 µg/mL | viability at 2.37 µg/mL ([11]; U87-MG, TTD 2.37 μg/mL, MTT, control = 100%, read-out: CV (cell viability)): 47.7% | IC50 ([11]; U87-MG, single compound, MTT): 2.37 µg/mL | viability at 3 µg/mL ([12]; Becap-37, TTD 3 μg/mL, MTT, control = 100%, read-out: CV (cell viability)): 56.1% | IC50 ([12]; Becap-37, single compound, MTT): 3 µg/mL | viability at 1 µg/mL ([13]; TTD 1 μg/mL, MTT, control = 100%, read-out: CV (cell viability)): 46.9% | IC50 ([13]; single compound, MTT): 1 µg/mL | IC50 ([14]; RPMI 8226, single compound, 72 h, MTT): 0.3 µg/mL | viability at 3.59 µg/mL [15, 16]: 47.1% | IC50 ([15]; CaEs17, CaES-17, single compound, 72 h, MTT): 3.59 µg/mL

CC[C@@]1(O)C[C@H](O[C@H]2C[C@H](N(C)C)[C@H](O[C@H]3C[C@H](O)[C@H](O[C@H]4CCC(=O)[C@H](C)O4)[C@H](C)O3)[C@H](C)O2)c2c(cc3c(c2O)C(=O)c2c(O)cccc2C3=O)[C@H]1C(=O)OC [Acla A, aclarubicin A]
viability at 0.05 µg/mL ([1]; Huh-7, 72 h, read-out: CV (cell viability)): 44.5% | IC50 ([1]; Huh-7, 72 h): 0.05 µg/mL | viability at 0.8 µg/mL (PC-3 (prostate cancer); read-out: CV (cell viability)): 46.1% | IC50 (PC-3 (prostate cancer)): 0.8 µg/mL | viability at 0.095 µg/mL ([2]; HeLa, read-out: CV (cell viability)): 52.7% | IC50 ([2]; HeLa): 0.095 µg/mL | viability at 0.15 µg/mL ([3]; read-out: CV (cell viability)): 48.9% | IC50 [3]: 0.15 µg/mL | viability at 0.1 µg/mL (MG63 (osteosarcoma); MG-63, 72 h, read-out: CV (cell viability)): 46.6% | IC50 (MG63 (osteosarcoma); MG-63, 72 h): 0.1 µg/mL | viability at 0.1 µg/mL ([4]; MGC-803, 72 h, read-out: CV (cell viability)): 42.2% | IC50 ([4]; MGC-803, 72 h): 0.1 µg/mL | viability at 0.25 µg/mL ([5]; SK-OV-3, 72 h, read-out: CV (cell viability)): 53.4% | IC50 ([5]; SK-OV-3, 72 h): 0.25 µg/mL | viability at 0.04 µg/mL ([6]; read-out: CV (cell viability)): 49.6% | IC50 [6]: 0.04 µg/mL | viability at 0.25 µg/mL ([7]; PANC-1, 72 h, read-out: CV (cell viability)): 58% | IC50 ([7]; PANC-1, 72 h): 0.25 µg/mL | viability at 0.03125 µg/mL ([8]; SPCA1, 72 h, read-out: CV (cell viability)): 50.6% | IC50 ([8]; SPCA1, 72 h): 0.0312 µg/mL | viability at 0.08 µg/mL (A549 (human lung cancer); A549, 72 h, read-out: CV (cell viability)): 50.4% | IC50 (A549 (human lung cancer); A549, 72 h): 0.08 µg/mL | viability at 0.25 µg/mL ([9]; HEp-2, 72 h, read-out: CV (cell viability)): 51% | IC50 ([9]; HEp-2, 72 h): 0.25 µg/mL | viability at 0.25 µg/mL ([10]; HepG2, 72 h, read-out: CV (cell viability)): 51.6% | IC50 ([10]; HepG2, 72 h): 0.25 µg/mL | viability at 0.21 µg/mL ([11]; read-out: CV (cell viability)): 54.1% | IC50 [11]: 0.21 µg/mL | viability at 0.5 µg/mL ([12]; read-out: CV (cell viability)): 44.8% | IC50 [12]: 0.5 µg/mL | viability at 0.03 µg/mL ([13]; read-out: CV (cell viability)): 42.6% | IC50 [13]: 0.03 µg/mL | viability at 0.035 µg/mL ([14]; RPMI-8226, 72 h, read-out: CV (cell viability)): 42.1% | IC50 ([14]; RPMI-8226, 72 h): 0.035 µg/mL | viability at 0.24 µg/mL [15, 16]: 45.4% | IC50 ([15]; CaEs17, 72 h): 0.24 µg/mL
